Experimental data: US12152048B2, “Nitroxoline prodrug and use thereof” (Jiangsu Yahong Meditech Co., Ltd., priority 2018, dated 2024)

Columns and labels:
Stability in dog plasma = assay type: in vitro ADME
[1] = Stability in plasma, overall conclusion (species not stated); conditions: conclusion in words
[2] = Stability in human plasma
Description: (§1) Experimental instruments: thermostatic shaker (SHA-B, Guohua Electric Appliance Co., Ltd.); centrifuge (5810R, Eppendorf); mass spectrometry (AP4000, Applied Biosystems, USA); liquid chromatography (LC-30AD, Shimadzu); sample injector (CTC Analytics AG System, CTC).
(§2) Test animals: plasma of human (batch number: BRH1343165), rat (batch number: RAT336728), mouse (batch number: MSE280000), dog (batch number: BGL99137) and monkey (batch number: PH-Monkey-20180821) are purchased from Shanghai Sixin Biological Technology Co., Ltd.
(§3) Experimental process: the compound of the present invention was dissolved in an organic solvent to obtain a 1 mM working solution. 3 μL of the working solution were added to 597 μL of pre-incubated human or rat plasma and mixed well. 50 μL of the solution were immediately taken out as the 0 minute sample. The remaining sample was incubated at 37° C., and 50 μL of sample were taken out at 15, 30, 60 and 120 minutes respectively. All the samples taken out were immediately processed to precipitate protein, and centrifuged to obtain a supermate for the determination of the compound concentration by LC/MS/MS.

[3] = Stability in human liver microsome; conditions: 2 μM, 37° C., 30 minutes
[4] = Determination of water solubility in phosphate buffer; assay type: physicochemical; conditions: for solubility at 24 h: thermodynamic from solid
Description: Experimental instruments: 96-well filter plate (MSHVN4510 or MSHVN4550, Millipore); electronic digital display vortex mixer (MS3 Digital, IKA); multi-purpose vacuum pump (circulating water type, SHB-111, Zhengzhou Greatwall Scientific Industrial and Trade Co., Ltd.); balance (XSLT05, Mettler-Toledo); comfortable mixer (Eppendorf AG 22331 Hamburg, Eppendorf); liquid chromatography (LC-3AD, Shimadzu); mass spectrometry (API4000, Applied Biosystems, USA); sample injector (Anylytics AG System, CTC). Nitroxoline was prepared according to the method disclosed in Journal of Heterocyclic Chemistry, 1971, vol. 8, p 821 by Wisdom Pharmaceutical Co., Ltd.
Experimental process: 500 μL of phosphate buffer (pH=1.2, 4.5, 6.8 or 7.4) were added to a glass flask, to which 2 mg of compound powder were added. The flask was sealed with a cap and shaked on a mixer (VORTEX-GENIE2) at room temperature for 24 hours. The solution was subjected to vacuum filtration, and the filtrate was processed to determine the compound concentration by LC/MS/MS.

[5] = Stability in dog liver microsome; conditions: 2 μM, 37° C., 30 minutes
[6] = Stability in rat liver microsome; conditions: 2 μM, 37° C., 30 minutes
Description: Experimental instruments: thermostatic shaker (SHA-B, Guohua Electric Appliance Co., Ltd.); centrifuge (5810R, Eppendorf); mass spectrometry (API4000, Applied Biosystems, USA); liquid chromatography (LC-30AD, Shimadzu); sample injector (CTC Analytics AG System, CTC).
Experimental process: 25 μg/mL alamethicin (Aldrich), 5 mM magnesium chloride and 0.5 mg/mL microsome (XENOTECH) were added to 100 mM phosphate buffer to obtain a coenzyme-free reaction solution. A portion of the coenzyme-free reaction solution was added with 1 mM reductive nicotinamide adenine dinucleotide phosphate (Aldrich) and 5 mM uridine diphosphate glucuronic acid (Aldrich) to obtain a coenzyme-containing reaction solution. The working solution of the compound of the present invention was added to the two reaction solutions so that the final concentration of the compound was 2 μM. Immediately after mixing well, 50 μL of the solution were taken out as the 0 minute sample, and 50 μL of the remaining sample were taken out after incubating at 37° C. for 30 minutes. All the samples taken out were immediately processed to precipitate protein, and centrifuged to obtain a supernate for the determination of the compound concentration by LC/MS/MS.

Description for Stability in rat plasma: as §1, §2, §3

SMILES	Percentage of the compound remaining in plasma (Stability in dog plasma; 0 minute)	Percentage of the compound remaining in plasma (Stability in dog plasma; 37° C., 15 minutes)	Percentage of the compound remaining in plasma (Stability in dog plasma; 37° C., 30 minutes)	Percentage of the compound remaining in plasma (Stability in dog plasma; 37° C., 60 minutes)	Percentage of the compound remaining in plasma (Stability in dog plasma; 37° C., 120 minutes)	Percentage of the compound remaining in plasma (Stability in rat plasma; 0 minute)	Percentage of the compound remaining in plasma (Stability in rat plasma; 37° C., 15 minutes)	Percentage of the compound remaining in plasma (Stability in rat plasma; 37° C., 30 minutes)	Percentage of the compound remaining in plasma (Stability in rat plasma; 37° C., 60 minutes)	Percentage of the compound remaining in plasma (Stability in rat plasma; 37° C., 120 minutes)	stability in plasma [1]	Percentage of the compound remaining in plasma ([2]; 0 minute)	Percentage of the compound remaining in plasma ([2]; 37° C., 15 minutes)	Percentage of the compound remaining in plasma ([2]; 37° C., 30 minutes)	Percentage of the compound remaining in plasma ([2]; 37° C., 60 minutes)	Percentage of the compound remaining in plasma ([2]; 37° C., 120 minutes)	Percentage of the compound remaining in human liver microsome ([3]; with coenzyme)	Percentage of the compound remaining in human liver microsome ([3]; without coenzyme)	Percentage of the compound remaining in dog liver microsome ([5]; with coenzyme)	Percentage of the compound remaining in dog liver microsome ([5]; without coenzyme)	further results
COC(=O)[C@H](Cc1ccccc1)NC(=O)OCOc1ccc([N+](=O)[O-])c2cccnc12 [Compound 58, methyl (S)-2-(((5-nitroquinolin-8-yloxy)methoxy)formamido)-3-phenylpropionate]	100.0%	96.3%	90.4%	74.4%	49.8%	100.0%	0.0%	0.0%	0.0%	0.0%	high stability	100.0%	95.2%	83.6%	60.9%	21.6%	–	–	–	–	–
C[C@@H]1CN(C(=O)OCOc2ccc([N+](=O)[O-])c3cccnc23)C[C@H](C)O1 [Compound 59, (2S,6R)-(5-nitroquinolin-8-yloxy)methyl 2,6-dimethylmorpholine-4-carboxylate]	100.0%	96.7%	95.0%	102.8%	99.9%	100.0%	95.8%	94.1%	92.4%	92.4%	high stability	100.0%	102.3%	100.9%	103.1%	100.3%	–	–	–	–	–
CC(C)(C)OP(=O)(OCOc1ccc([N+](=O)[O-])c2cccnc12)OC(C)(C)C [Compound 70, di-tert-butyl (5-nitroquinolin-8-yloxy)methyl phosphate]	–	–	–	–	–	100.0%	93.4%	80.7%	84.1%	72.9%	high stability	100.0%	85.6%	89.0%	75.2%	74.4%	91.20%	91.76%	91.42%	90.90%	solubility at 24 h ([4]; aqueous buffer, phosphate buffer pH 4.5, room temperature): 843 µg/mL; solubility at 24 h ([4]; aqueous buffer, phosphate buffer pH 6.8, room temperature): 940 µg/mL; solubility at 24 h ([4]; aqueous buffer, phosphate buffer pH 7.4, room temperature): 998 µg/mL; water solubility compared with nitroxoline ([4]; conclusion in words): increased by several times; solubility at 24 h ([4]; simulated gastric fluid, phosphate buffer pH 1.2, room temperature): 639 µg/mL; Percentage of the compound remaining in rat liver microsome ([6]; with coenzyme): 94.34%; Percentage of the compound remaining in rat liver microsome ([6]; without coenzyme): 96.79%
CC(C)OC(=O)[C@H](C)NP(=O)(OCOc1ccc([N+](=O)[O-])c2cccnc12)Oc1ccccc1 (stereo partly shown) [Compound 75]	100.0%	98.3%	95.6%	80.8%	67.8%	100.0%	0.0%	0.0%	0.0%	0.0%	high stability	100.0%	98.5%	94.0%	87.2%	65.5%	1.64%	6.45%	12.95%	48.90%	Percentage of the compound remaining in rat liver microsome ([6]; with coenzyme): 0.00%; Percentage of the compound remaining in rat liver microsome ([6]; without coenzyme): 0.02%
